Assay results published in patent US20070282004A1, “Use of a Cyclopentenone Prostaglandin for Delaying for the Onset and/or Preventing the Continuation of Labour” (Imperial College Innovations Limited, priority 2003, published 2007).

Tests used:
IL-1β = test: Mouse model of preterm labour (LPS): placental IL-1β by ELISA; assay type: in vivo; settings: gestation day 16 mice, 6 hours after intrauterine 250 μg LPS + 4 μg 15d-PGJ2, p<0.05
Description: Concentrations of IL-1β in placental homogenates collected from gestation day 16 mice 6 hours after intrauterine injection of 250 μg LPS+vehicle or 250 μg LPS+4 μg 15d-PGJ2. * denotes statistically significant difference (t-test (p<0.05)).
(§1) Surgery was performed on timed pregnant MF1 mice at day 16 of gestation. After deep maternal anaesthesia was attained, a minilaparotomy was performed in the lower abdomen. The uterine horns were exposed through the incision and preterm labour was induced by the intrauterine injection of 250 μg lipopolysaccharide (LPS, Sigma) into the gravid horn. This was immediately followed by injection of 4 μg […] (Cayman), or an equal volume of vehicle (methyl acetate), at the same site. The uterus was then returned to the abdomen and the fascia and skin were closed with continuous vicryl sutures.
(§2) Mice were sacrificed 6 hours after injection of LPS±15d-PGJ2. […]
(§3) Homogenate levels of Interlekin-1β (IL-1β) and tumour necrosis factor α (TNFα) were determined in placental lysates by ELISA (R and D systems) according to manufacturers instructions. Total protein concentrations were determined for each homogenate and IL-1β and TNFα levels were expressed as pg/mg total protein. […] Phosphorylated p65 (phospho-p65) was detected by western immunoblotting using a specific antibody (Santa Cruz) and quantified by densitometric analysis.

TNFα = test: Mouse model of preterm labour (LPS): placental TNFα by ELISA; assay type: in vivo; settings: gestation day 16 mice, 6 hours after intrauterine LPS + 15d-PGJ2 vs LPS + vehicle
Description: as §1
Mice were sacrificed 6 hours after injection of LPS±15d-PGJ2. Placentae were washed in phosphate buffered saline (PBS), flash frozen in liquid nitrogen and stored at −80° C. until further processing. Fetuses were washed in PBS, then immediately fixed in 4% parafornaldellyde for 24 h and then stored in 70% ethanol until further processing. […]
as §3

phospho-p65 = test: Mouse model of preterm labour (LPS): placental phospho-p65 by western immunoblot; assay type: in vivo; settings: gestation day 16 mice, 6 hours after intrauterine 250 μg LPS + 15d-PGJ2, p<0.05
Description: Relative concentrations of phospho-p65 in placental homogenates collected from gestation day 16 mice 6 hours after intrauterine injection of 250 μg LPS+vehicle or 250 μg LPS+[…] 15d-PGJ2. * denotes statistically significant difference (t-test (p<0.05)).
as §1, §2, §3

NF-κB = test: Western immunoblot of p65, p50, IκB in amnion cell extracts; assay type: cell-based, human; settings: L−, L+ amnion cells; for IL-1β-induced p65 nuclear translocation: treated 2 h, IL-1β 15 min
Description: Western immunoblots of nuclear or cytosolic protein extracts from (A) myometrial cells, (B) L− amnion cells, and (C) L+ amnion cells treated with 15dPGJ2 or vehicle for 2 h±IL-1β stimulation (15 min). Blots probed with antibodies against p65, p50 or IκBα.
Placentae were obtained from patients at term either at elective Caesarean section prior to labour (L−) or following spontaneous labour onset and vaginal delivery (L+). Amnion cells were prepared as described in Bennett et al., (1989). Briefly, the amnion was separated from the placenta, washed 3× in PBS, cut into strips, and incubated in 0.5 mM EDTA in PBS for 15 min. The strips were washed in PBS 2× and digested with 2.5 mg/ml dispase in serum-free DMEM for 35 min at 37° C. The amnion was then shaken vigorously in DMEM, 10% FCS to dissociate the cells, the remaining strips discarded, and the cell suspension pelleted at 175 g for 10 min and cultured in DMEM, 10% FCS (Sigma), 1% L-glutamine, 1% penicillin-streptomycin.
Nuclear and cytosolic protein extracts were obtained from cultured amnion cells as described by Schreiber et al (1989). For nuclear/cytosolic fractionation, confluent cell monolayers were scraped and lysed using a buffer containing 10 mM HEPES, 10 mM KCl, 0.1 mM EDTA, 0.1 mM EGTA, 2 mM DTT, 1% (v/v) NP-40 and complete protease inhibitor tablets (CPIs, Roche), diluted to manufacturer's instructions. Cell lysates were incubated on ice for 10 min and NP-40 added to a final concentration of 1% (v/v). Lysates were vortexed for 10 secs and centrifuged for 30 secs at 4° C., 12000 g. The supernatants were retained as the cytosolic protein extracts. The pellets were resuspended in buffer containing 10 mM HEPES, 10 mM KCl, 0.1 mM EDTA, 0.1 mM EGTA, 2 mM DTT, 400 mM NaCl, 1% NP-40 (v/v) and CPIs. Samples were shaken vigorously for 15 min in an ice bath. The nuclear protein extracts were obtained in the supernatant following a 5 min centrifugation at 4° C., 12000 g.
Protein samples (20-70 μg) were mixed with Laemmli sample buffer (1:1) containing β-mercaptoethanol (5%), and boiled for 5 min. Proteins were then separated by SDS-PAGE (12-14% gels) and transferred onto PVDF membrane (Amersham Pharmacia Biotech). The membranes were blocked overnight in 5% non-fat milk prepared in PBS-T buffer, at 4° C. The blots were incubated with the primary antibody in 1% non-fat milk in PBS-T buffer for 1 h, and washed three times (10 min each) in PBS-T with vigorous shaking. The blots were then incubated with HRP-conjugated secondary antibody (diluted 1:2000 in 1% non-fat milk in PBS-T buffer) for 1 h and washed three times (10 min each) in PBS-T. Signal detection was achieved using enhanced chemi-luminescence (ECL plus system, Amersham Pharmacia Biotech) according to manufacturer's instructions.
30-50 μg protein extracts were subjected to SDS-PAGE and Western immuno-blotting. Secondary antibodies were IgG-HRP and ECL Plus detection kit (Amersham Pharmacia Biotech, Amersham Place, Little Chalfont, Bucks, HP7 9NA) was used for visualisation.

PPARα = settings: Forman et al., 1995; cited from earlier work

## CCCCCC=CC=C1C(=O)C=C[C@@H]1CC=CCCCC(=O)O [15d-PGJ2, 15-deoxy-Δ^12,14prostaglandin J2]
IL-1β
  Levels of IL-1β lower in proximal placentae vs LPS+vehicle: approximately 40%
TNFα
  TNFα levels in placentae according to drug treatment: not significantly altered
phospho-p65
  phospho-p65 levels lower in proximal placentae vs LPS+vehicle: approximately 35%
NF-κB
  IL-1β-induced IκBα degradation: inhibition
  IL-1β-induced IκBβ degradation: inhibition
  IL-1β-induced p50 phosphorylation: inhibition
  IL-1β-induced p65 nuclear translocation: inhibited
NF-κB; listed as 15dPGJ2
  IL-1β-induced p65 nuclear translocation: inhibition
PPARα
  Transactivation of PPAR-α: more weakly than PPAR-γ
